Test results reported in patent US20090075397A1, “Method for characterizing sugar-binding interactions of biomolecules” (Academia Sinica, priority 2007, published 2009).

T1: lectin UEA-1 (Ulex europaeus, UniProt P22972)
T1 construct: purchased EY Labs, Inc
T1 sequence (P22972 1-243): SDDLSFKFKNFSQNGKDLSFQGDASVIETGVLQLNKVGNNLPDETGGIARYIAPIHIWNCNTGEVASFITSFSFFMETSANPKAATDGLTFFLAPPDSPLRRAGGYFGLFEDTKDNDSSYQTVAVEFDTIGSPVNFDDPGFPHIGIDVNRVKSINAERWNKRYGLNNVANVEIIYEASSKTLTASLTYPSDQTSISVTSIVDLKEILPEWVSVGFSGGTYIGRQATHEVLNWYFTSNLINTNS

B1: PNA: lectin of Arachis hypogaea (protein, UniProt P02872 24-273, looked up)
Galactose-binding lectin: AETVSFNFNSFSEGNPAINFQGDVTVLSNGNIQLTNLNKVNSVGRVLYAMPVRIWSSATGNVASFLTSFSFEMKDIKDYDPADGIIFFIAPEDTQIPAGSIGGGTLGVSDTKGAGHFVGVEFDTYSNSEYNDPPTDHVGIDVNSVDSVKTVPWNSVSGAVVKVTVIYDSSTKTLSVAVTNDNGDITTIAQVVDLKAKLPERVKFGFSASGSLGGRQIHLIRSWSFTSTLITTTRRSIDNNEKKIMNMASA

What was measured:
[1] = test system: H1N1 virus (A/Beijing/262/95); type: binding, influenza virus H1N1 (A/Beijing/262/95); details: virus particles on acceptor beads, FIG. 5A
[2] = test system: recombinant hemagglutinin (HA) of H1N1 (A/Beijing/262/95); type: binding, influenza virus H1N1 (A/Beijing/262/95)
[3] = test system: H3N2 virus (A/Panama/2007/99); type: binding, influenza virus H3N2 (A/Panama/2007/99); details: virus particles on acceptor beads, FIG. 5B
anti-Lex antibody = assay: ALPHAScreen sugar/protein binding assay, sugar on donor beads, antibody on acceptor beads; details: sugar linked to streptavidin donor beads
[4] = ALPHAScreen profiling of lectin binding specificities with biotinylated PAA-sugars; details: for Binding specificities: Table 2 (SI), examined lectins
lectin UEA-1 = molecular target: T1, lectin UEA-1; assay: ALPHAScreen sugar/protein binding assay, sugar on donor beads, lectin on acceptor beads; details: sugar linked to streptavidin donor beads, UEA-1 on acceptor beads

Molecule | recognition by H1N1 virus (A/Beijing/262/95) [1] | recognition by HA of H1N1 (A/Beijing/262/95) [2] | also measured
CC(=O)N[C@H]1C(O)O[C@H](CO[C@]2(C(=O)O)C[C@H](O)[C@@H](NC(=O)CO)[C@H]([C@H](O)[C@H](O)CO)O2)[C@H](O)[C@@H]1O (stereo partly drawn) [Glycan No. 22, NeuGcα2-6GalNAc] | do not recognize | do not recognize | –
CC(=O)N[C@H]1[C@H]([C@H](O)[C@H](O)CO)O[C@@](O[C@H]2[C@@H](O)[C@@H](CO)OC(O)[C@@H]2NC(C)=O)(C(=O)O)C[C@@H]1O (stereo partly drawn) [Glycan No. 27, NeuAcα2-3GalNAc] | do not recognize | do not recognize | –
(NeuAcα2-8)5-6 [Glycan No. 52] | do not recognize | do not recognize | recognition by H3N2 virus (A/Panama/2007/99) [3]: accepted
Galβ1-4(Fucα1-3)GlcNAc (Le^x) [Glycan No. 33] | – | – | binding signal with anti-Lex antibody (anti-Lex antibody): able to produce signals
SBA: lectin of Glycine max | – | – | Binding specificities [4]: GalNAc/Gal
α-L-Fuc [Glycan No. 6] | – | – | binding signal with lectin UEA-1 (lectin UEA-1): able to produce signals
B1 | – | – | Binding specificities [4]: Galβ1-3GalNAc; lectin sugar binding specificity ([4]; profiled with more than 50 biotinylated PAA-sugars, FIG. 2): binds to the Galb1-3GalNAc structure specifically
